From patent US20060019997A1, “Triazole compounds and their use as metabotropic glutamate receptor antagonists” (AstraZeneca AB, priority 2004, published 2006)

Target: T1, human mGluR5d (Homo sapiens, UniProt P41594)
T1 construct: expressed in transfected cells
Assay: FLIPR analysis of [Ca2+]i mobilization (Group I receptor antagonist activity)
Assay type: cell-based
Settings: cells expressing human mGluR5d; antagonist block of agonist challenge
From the text: The pharmacological properties of the compounds of the invention can be analyzed using standard assays for functional activity. Examples of glutamate receptor assays are well known in the art as described in for example Aramori et al., Neuron 8:757 (1992), Tanabe et al., Neuron 8:169 (1992), Miller et al., J. Neuroscience 15: 6103 (1995), Balazs, et al., J. Neurochemistry 69:151 (1997). The methodology described in these publications is incorporated herein by reference. Conveniently, the compounds of the invention can be studied by means of an assay that measures the mobilization of intracellular calcium, [Ca^2+]i in cells expressing mGluR5. […]
(§1) FLIPR experiments were done using a laser setting of 0.800 W and a 0.4 second CCD camera shutter speed. […] After each addition of the compound, the fluorescence signal was sampled 50 times at 1 second intervals followed by 3 samples at 5 second intervals. Responses were measured as the peak height of the response within the sample period. […]
as §1, with “speed with excitation and emission wavelengths of 488 nm and 562 nm, respectively.” for “speed.”, “addition” for “addition of the compound,”

T1 sequence (P41594 21-942 isoform P41594-3 limits assumed): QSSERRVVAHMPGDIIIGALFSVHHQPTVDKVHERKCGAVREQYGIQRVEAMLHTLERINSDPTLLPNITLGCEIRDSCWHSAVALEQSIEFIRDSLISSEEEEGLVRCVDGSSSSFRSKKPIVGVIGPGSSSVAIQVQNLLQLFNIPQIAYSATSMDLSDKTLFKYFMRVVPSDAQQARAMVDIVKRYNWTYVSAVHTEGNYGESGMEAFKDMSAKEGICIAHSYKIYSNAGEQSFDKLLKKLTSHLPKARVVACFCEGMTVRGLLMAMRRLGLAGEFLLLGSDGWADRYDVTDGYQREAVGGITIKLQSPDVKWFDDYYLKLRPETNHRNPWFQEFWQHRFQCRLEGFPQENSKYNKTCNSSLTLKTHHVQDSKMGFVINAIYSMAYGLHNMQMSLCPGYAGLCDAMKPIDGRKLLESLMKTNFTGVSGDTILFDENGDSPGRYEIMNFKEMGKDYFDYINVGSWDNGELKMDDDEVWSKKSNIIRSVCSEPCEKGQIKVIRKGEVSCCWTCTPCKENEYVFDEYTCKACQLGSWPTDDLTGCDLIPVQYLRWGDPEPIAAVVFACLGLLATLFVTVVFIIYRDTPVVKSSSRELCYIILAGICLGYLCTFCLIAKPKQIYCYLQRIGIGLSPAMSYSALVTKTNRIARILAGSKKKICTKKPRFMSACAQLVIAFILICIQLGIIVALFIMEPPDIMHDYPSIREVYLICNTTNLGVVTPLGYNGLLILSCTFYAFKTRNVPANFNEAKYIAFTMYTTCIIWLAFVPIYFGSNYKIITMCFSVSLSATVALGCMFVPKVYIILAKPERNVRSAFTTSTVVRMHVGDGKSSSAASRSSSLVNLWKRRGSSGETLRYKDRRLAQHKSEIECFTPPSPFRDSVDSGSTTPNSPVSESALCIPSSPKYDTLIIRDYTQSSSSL

Compound | IC50 [nM]
CC(Oc1nnc(-c2ccncc2)n1C)c1cnn(-c2cccc(Cl)c2)n1 (centres unmarked) [4-(5-{1-[2-(3-chlorophenyl)-2H-1,2,3-triazol-4-yl]ethoxy}-4-methyl-4H-1,2,4-triazol-3-yl)pyridine] | 27
Clc1cccc(-n2cc(CSc3nnc(-c4ccncc4)n3C3CC3)nn2)c1 [4-{5-[1-(3-Chloro-phenyl)-1H-[1,2,3]triazol-4-ylmethylsulfanyl]-4-cyclopropyl-4H-[1,2,4]triazol-3-yl}-pyridine] | 265
